Test results as given in the NIST ThermoML archive (doi:10.1016/j.jct.2011.12.013).
Numbers after ± are expanded uncertainties.

Assay: xn = mol fraction of the nth substance listed
Conditions: Liquid, Custom Made Vibrating Tube Densimeter

C=C1CC[C@H]2C[C@@H]1C2(C)C [(1S,5S)-6,6-dimethyl-2-methylenebicyclo[3.1.1]heptane] + C=C(C)[C@H]1CC=C(C)CC1
mass density [kg/m3]
Conditions | x2 = 0 | x2 = 0.11 | x2 = 0.2008 | x2 = 0.289 | x2 = 0.3961 | x2 = 0.4938 | x2 = 0.5906 | x2 = 0.6984 | x2 = 0.7993 | x2 = 0.9022
283.15 K, 20000 kPa | 891.3 ± 1 | 888.1 ± 1 | 885.4 ± 1 | 882.8 ± 1 | 879.6 ± 1 | 876.8 ± 1.1 | 873.9 ± 1.1 | 870.9 ± 1.1 | 868 ± 1.1 | 864.5 ± 1.1
283.15 K, 25000 kPa | 894.2 ± 1 | 891 ± 1 | 888.3 ± 1 | 885.7 ± 1 | 882.4 ± 1 | 879.6 ± 1.1 | 876.8 ± 1.1 | 873.7 ± 1.1 | 870.8 ± 1.1 | 867.8 ± 1.1
283.15 K, 30000 kPa | 897 ± 1 | 893.9 ± 1 | 891 ± 1 | 888.4 ± 1 | 885.2 ± 1 | 882.5 ± 1.1 | 879.7 ± 1.1 | 876.5 ± 1.1 | 873.6 ± 1.1 | 870.4 ± 1.1
283.15 K, 35000 kPa | 899.9 ± 1 | 896.7 ± 1 | 893.8 ± 1 | 891.2 ± 1 | 887.9 ± 1 | 885.2 ± 1.1 | 882.4 ± 1.1 | 879.3 ± 1.1 | 876.5 ± 1.1 | 873.3 ± 1.1
283.15 K, 40000 kPa | 902.6 ± 1 | 899.3 ± 1 | 896.3 ± 1 | 894 ± 1 | 890.6 ± 1 | 887.8 ± 1.1 | 885.1 ± 1.1 | 881.9 ± 1.1 | 879.2 ± 1.1 | 876 ± 1.1
298.15 K, 20000 kPa | 880.2 ± 1 | 877 ± 1 | 874.1 ± 1 | 871.8 ± 1 | 868.7 ± 1 | 865.8 ± 1.1 | 863 ± 1.1 | 859.9 ± 1.1 | 857.2 ± 1.1 | 854.3 ± 1.1
298.15 K, 25000 kPa | 883.3 ± 1 | 880.1 ± 1 | 877.2 ± 1 | 874.9 ± 1 | 871.8 ± 1 | 868.9 ± 1.1 | 866.2 ± 1.1 | 863.1 ± 1.1 | 860.2 ± 1.1 | 857.3 ± 1.1
298.15 K, 30000 kPa | 886.3 ± 1 | 883.1 ± 1 | 880.3 ± 1 | 877.9 ± 1 | 874.8 ± 1 | 871.9 ± 1.1 | 869.2 ± 1.1 | 866.2 ± 1.1 | 863.3 ± 1.1 | 860.3 ± 1.1
298.15 K, 35000 kPa | 889.3 ± 1 | 886.1 ± 1 | 883.5 ± 1 | 881 ± 1 | 877.7 ± 1 | 874.9 ± 1.1 | 872.3 ± 1.1 | 869 ± 1.1 | 866.5 ± 1.1 | 863.4 ± 1.1
298.15 K, 40000 kPa | 892.2 ± 1 | 889 ± 1 | 886.5 ± 1 | 883.9 ± 1 | 880.7 ± 1 | 878 ± 1.1 | 875.4 ± 1.1 | 871.9 ± 1.1 | 869 ± 1.1 | 866.1 ± 1.1
313.15 K, 20000 kPa | 869.3 ± 1 | 866.1 ± 1 | 863.5 ± 1 | 860.9 ± 1 | 857.8 ± 1 | 854.9 ± 1 | 852.4 ± 1.1 | 849.3 ± 1.1 | 846.5 ± 1.1 | 843.7 ± 1.1
313.15 K, 25000 kPa | 872.6 ± 1 | 869.5 ± 1 | 866.8 ± 1 | 864.2 ± 1 | 861.1 ± 1 | 858.1 ± 1 | 855.6 ± 1.1 | 852.5 ± 1.1 | 849.8 ± 1.1 | 847 ± 1.1
313.15 K, 30000 kPa | 875.7 ± 1 | 872.6 ± 1 | 870.1 ± 1 | 867.5 ± 1 | 864.3 ± 1 | 861.4 ± 1.1 | 858.7 ± 1.1 | 855.7 ± 1.1 | 852.9 ± 1.1 | 849.9 ± 1.1
313.15 K, 35000 kPa | 878.8 ± 1 | 875.7 ± 1 | 873.3 ± 1 | 870.6 ± 1 | 867.5 ± 1 | 864.5 ± 1.1 | 862 ± 1.1 | 858.7 ± 1.1 | 856.1 ± 1.1 | 853 ± 1.1
313.15 K, 40000 kPa | 882 ± 1 | 878.8 ± 1 | 876.7 ± 1 | 873.8 ± 1 | 870.7 ± 1 | 867.8 ± 1.1 | 865 ± 1.1 | 861.8 ± 1.1 | 859.1 ± 1.1 | 856 ± 1.1
328.15 K, 20000 kPa | 858.2 ± 1 | 855.3 ± 1 | 852.6 ± 1 | 850.1 ± 1 | 846.9 ± 1 | 844.3 ± 1 | 841.5 ± 1.1 | 838.9 ± 1.1 | 835.9 ± 1.1 | 833.1 ± 1.1
328.15 K, 25000 kPa | 861.7 ± 1 | 858.7 ± 1 | 856 ± 1 | 853.5 ± 1 | 850.4 ± 1 | 847.7 ± 1 | 844.9 ± 1.1 | 842.1 ± 1.1 | 839.4 ± 1.1 | 836.4 ± 1.1
328.15 K, 30000 kPa | 865.2 ± 1 | 862.1 ± 1 | 859.5 ± 1 | 857 ± 1 | 853.9 ± 1 | 851.2 ± 1 | 848.5 ± 1.1 | 845.4 ± 1.1 | 842.7 ± 1.1 | 839.7 ± 1.1
328.15 K, 35000 kPa | 868.7 ± 1 | 865.5 ± 1 | 862.7 ± 1 | 860.3 ± 1 | 857.2 ± 1 | 854.6 ± 1 | 851.9 ± 1.1 | 848.7 ± 1.1 | 846.1 ± 1.1 | 843.1 ± 1.1
328.15 K, 40000 kPa | 872.2 ± 1 | 868.8 ± 1 | 866.1 ± 1 | 863.7 ± 1 | 860.7 ± 1 | 857.8 ± 1 | 855.3 ± 1.1 | 852 ± 1.1 | 849.4 ± 1.1 | 846.8 ± 1.1
343.15 K, 20000 kPa | 847.7 ± 1 | 844.7 ± 1 | 842.1 ± 1 | 839.6 ± 1 | 836.7 ± 1 | 834 ± 1 | 831.4 ± 1.1 | 828.4 ± 1.1 | 825.7 ± 1.1 | 822.7 ± 1.1
343.15 K, 25000 kPa | 851.4 ± 1 | 848.4 ± 1 | 845.8 ± 1 | 843.5 ± 1 | 840.3 ± 1 | 837.6 ± 1 | 834.9 ± 1.1 | 832 ± 1.1 | 829.1 ± 1.1 | 826.3 ± 1.1
343.15 K, 30000 kPa | 855 ± 1 | 852 ± 1 | 849.4 ± 1 | 846.9 ± 1 | 843.9 ± 1 | 841.2 ± 1 | 838.6 ± 1.1 | 835.6 ± 1.1 | 832.9 ± 1.1 | 830 ± 1.1
343.15 K, 35000 kPa | 858.6 ± 1 | 855.5 ± 1 | 853.1 ± 1 | 850.6 ± 1 | 847.4 ± 1 | 844.8 ± 1 | 842.3 ± 1.1 | 839.1 ± 1.1 | 836.7 ± 1.1 | 833.6 ± 1.1
343.15 K, 40000 kPa | 862.1 ± 1 | 859 ± 1 | 856.7 ± 1 | 854 ± 1 | 850.8 ± 1 | 848.3 ± 1 | 845.6 ± 1.1 | 842.4 ± 1.1 | 840.1 ± 1.1 | 837.1 ± 1.1
358.15 K, 20000 kPa | 837 ± 1 | 834 ± 1 | 831.4 ± 1 | 829.2 ± 1 | 826.3 ± 1 | 823.7 ± 1 | 821 ± 1.1 | 818.2 ± 1.1 | 815.6 ± 1.1 | 812.5 ± 1.1
358.15 K, 25000 kPa | 840.9 ± 1 | 838 ± 1 | 835.4 ± 1 | 833 ± 1 | 830.1 ± 1 | 827.4 ± 1 | 824.9 ± 1.1 | 822 ± 1.1 | 819.4 ± 1.1 | 816.7 ± 1.1
358.15 K, 30000 kPa | 844.8 ± 1 | 841.9 ± 1 | 839.2 ± 1 | 836.8 ± 1 | 833.8 ± 1 | 831.2 ± 1 | 828.6 ± 1.1 | 825.7 ± 1.1 | 823 ± 1.1 | 820 ± 1.1
358.15 K, 35000 kPa | 848.7 ± 1 | 845.7 ± 1 | 843 ± 1 | 840.6 ± 1 | 837.5 ± 1 | 834.9 ± 1 | 832.4 ± 1.1 | 829.4 ± 1.1 | 826.8 ± 1.1 | 823.9 ± 1.1
358.15 K, 40000 kPa | 852.6 ± 1 | 849.6 ± 1 | 846.8 ± 1 | 844.6 ± 1 | 841.4 ± 1 | 838.7 ± 1 | 836.2 ± 1.1 | 833.1 ± 1.1 | 830.3 ± 1.1 | 827.3 ± 1.1
